Measured values from US8530512B2, “Broad spectrum gram-positive antimicrobials and anthelmintics with efficacy against drug-resistant strains and Mycobacterium species” (priority 2004, dated 2013).
In brackets after ≈: the same amount, converted by molar mass. Read-outs that look alike come from different tables or passages of the source.

What was measured:
[1] = system: Staphylococcus aureus ATCC 29213; experiment: microbe, parasite or virus in culture; format: cell-based; details: for MIC: Staphylococcus aureus, ATCC29213
[2] = system: Staphylococcus aureus MRSA MC-1; experiment: microbe, parasite or virus in culture; format: cell-based; details: for MIC: Staphylococcus aureus, MRSA; for MIC S. aureus MC-1: Table 6
[3] = system: Bacillus cereus; experiment: microbe, parasite or virus in culture; format: cell-based; details: Bacillus cereus; per-compound listing, Example 6; read-out: MIC B. cereus
[4] = system: M. smegmatis; experiment: MIC assay; format: cell-based; details: for MIC: Mycolicibacterium smegmatis, read-out: MIC M. smegmatis
[5] = system: Mycobacterium avium; experiment: MIC assay; format: cell-based; details: Table 6; for MIC: Mycobacterium avium, read-out: MIC M. avium
[6] = system: Mycobacterium chelonae; experiment: MIC assay; format: cell-based; details: Table 6; for MIC: read-out: MIC M. chelonae
[7] = system: Mycobacterium fortuitum; experiment: MIC assay; format: cell-based; details: Table 6; for MIC: Mycolicibacterium fortuitum, read-out: MIC M. fortuitum
[8] = system: Mycobacterium intracellulare; experiment: MIC assay; format: cell-based; details: Table 6; for MIC: Mycobacterium intracellulare, read-out: MIC M. intracellulare
[9] = system: M. kansasii; experiment: MIC assay; format: cell-based; details: Table 6; for MIC: Mycobacterium kansasii, read-out: MIC M. kansasii
[10] = system: C. elegans; experiment: motility assay; format: in vivo; set-up: key to Movement score, 1/1600 / Movement score, 1/800 / Movement score, 1/400 / Movement score, 1/200 / Movement score, 1/100: normal (−); slow (+); very slow (++); not motile/paralyzed (+++); details: Ive 1 ng/μL in all wells; for Movement score, 1/100: dilution 1/100 of stock (10.24 μg/μL; SK-03-92 1.024 μg/μL); for Movement score, 1/200: dilution 1/200 of stock (10.24 μg/μL; SK-03-92 1.024 μg/μL); for Movement score, 1/400: dilution 1/400 of stock (10.24 μg/μL; SK-03-92 1.024 μg/μL); for Movement score, 1/800: dilution 1/800 of stock (10.24 μg/μL; SK-03-92 1.024 μg/μL); for Movement score, 1/1600: dilution 1/1600 of stock (10.24 μg/μL; SK-03-92 1.024 μg/μL), overnight 20° C.
[11] = Table 6, read-out: MIC S. aureus ATCC 29213

| Compound | MIC [1, 11] [µg/mL] | MIC ([2]; read-out: MIC S. aureus MC-1) [µg/mL] | MIC M. smegmatis ([4]; Table 6) [µg/mL] | MIC [5] [µg/mL] | MIC [6] [µg/mL] | MIC [7] [µg/mL] | MIC [8] [µg/mL] | MIC [9] [µg/mL] | MIC S. aureus ATCC 29213 ([1]; Table 6) [µg/mL] | MIC S. aureus MC-1 [2] [µg/mL] | MIC M. avium [5] [µg/mL] | MIC M. chelonae [6] [µg/mL] | MIC M. fortuitum [7] [µg/mL] | MIC M. intracellulare [8] [µg/mL] | MIC M. kansasii [9] [µg/mL] | further results |
| --- | --- | --- | --- | --- | --- | --- | --- | --- | --- | --- | --- | --- | --- | --- | --- | --- |
| COc1cc(O)cc(/C=C/Oc2cccc3ccccc23)c1 [SK-04-22] | 16 (≈ 54.7 µM) | 16 (≈ 54.7 µM) | 128 (≈ 438 µM) | 64 (≈ 219 µM) | 256 (≈ 876 µM) | 128 (≈ 438 µM) | 128 (≈ 438 µM) | 64 (≈ 219 µM) |  |  |  |  |  |  |  | MIC ([1]; per-compound listing, Example 6, read-out: MIC S. aureus): 32 µg/mL (≈ 109 µM); MIC ([2]; read-out: MIC MRSA): 16 µg/mL (≈ 54.7 µM); MIC [3]: 8 µg/mL (≈ 27.4 µM); MIC ([4]; per-compound listing, Example 6): 128 µg/mL (≈ 438 µM); Movement score, 1/100 [10]: ++; Movement score, 1/200 [10]: +; Movement score, 1/400 [10]: +; Movement score, 1/800 [10]: −; Movement score, 1/1600 [10]: − |
| CCOC(=O)/C=C\Sc1ccccc1C(=O)OC [SK-04-56] | > 512 | > 512 |  | 64 (≈ 240 µM) | 64 (≈ 240 µM) | 64 (≈ 240 µM) | 256 (≈ 961 µM) | 64 (≈ 240 µM) |  |  |  |  |  |  |  | MIC ([4]; Table 6): 64 µg/mL (≈ 240 µM) |
| CCOC(=O)/C=C\Sc1ccc(C(C)(C)C)cc1 [SK-04-57] | > 512 | > 512 |  | 64 (≈ 242 µM) | 8 (≈ 30.3 µM) | 4 (≈ 15.1 µM) | 128 (≈ 484 µM) | 16 (≈ 60.5 µM) |  |  |  |  |  |  |  | MIC ([4]; Table 6): 16 µg/mL (≈ 60.5 µM); Movement score, 1/100 [10]: +; Movement score, 1/200 [10]: −; Movement score, 1/400 [10]: −; Movement score, 1/800 [10]: −; Movement score, 1/1600 [10]: − |
| CCOC(=O)/C=C\Sc1ncccn1 [SK-04-58F] |  |  | 64 (≈ 304 µM) |  |  |  |  |  | >512 | >512 | 64 (≈ 304 µM) | 32 (≈ 152 µM) | 64 (≈ 304 µM) | 128 (≈ 609 µM) | 64 (≈ 304 µM) |  |
| CCOC(=O)/C=C\Sc1nc2ccccc2s1 [SK-04-59F] |  |  | 16 to 32 |  |  |  |  |  | >512 | >512 | 64 (≈ 241 µM) | 8 (≈ 30.1 µM) | 16 (≈ 60.3 µM) | 16 (≈ 60.3 µM) | 8 (≈ 30.1 µM) |  |
| N#Cc1cccc(/C=C/SC2=NCCS2)c1 [SK-04-72] |  |  | 64 (≈ 260 µM) |  |  |  |  |  | >512 | >512 | 64 (≈ 260 µM) | 64 (≈ 260 µM) | 64 (≈ 260 µM) | 64 (≈ 260 µM) |  |  |
| N#Cc1cccc(/C=C/Sc2ncccn2)c1 [SK-04-73] |  |  | 64 (≈ 267 µM) |  |  |  |  |  | 512 (≈ 2140 µM) | >512 | 512 (≈ 2140 µM) | 256 (≈ 1070 µM) | 256 (≈ 1070 µM) | 512 (≈ 2140 µM) | 128 (≈ 535 µM) |  |
